# Data published in patent publication US6194408A, “Triazineone compounds for treating diseases due to Sarcocystis, Neospora and Toxoplasma” (Bayer Corporation, priority 1998, dated 2001).
# Key:
# [1] = test system: Neospora caninum NC-1; assay: Microtiter Monolayer Disruption Assay (MMDA), inhibition of BT cell destruction by N. caninum; format: cell-based; details: 1.0 μg/mL, read-out: Percent Inhibition of Cell Destruction
# Method: (§1) In order to determine the scope of protection provided by Ponazuril, in vitro testing was conducted. The following strains of parasites were evaluated for their sensitivity to this compound: Strain SN3 of Sarcocystis neurona; strain SF1 of Sarcocystis falcatula; strain RH of Toxoplasma gondii; and the NC-1 strain of Neospora caninum. Ponazuril was tested at concentrations (1 μg/mL and 10 μg/mL).
# (§2) Bovine turbinate (BT) cells were used for all in vitro studies. Cells were grown to confluency in 25 cm^2 flasks in RMPI 1640 media supplemented with 10% v/v fetal bovine serum (FBS), 100 Units penicillin (G/mL), […] and 5×10^-2 mM 2-mercpatoethanol. After cell confluence was obtained, cells were maintained in the same media with reduced FBS (2% v/v). Cell cultures were incubated at 37° C. in a humidified atmosphere containing 5% carbon dioxide and 95% air. […]
# (§3) The assay used to determine the effectiveness of Ponazuril was the Microtiter Monolayer Disruption Assay (MMDA). […] Flat bottomed 96-well microtiter plates were inoculated with BT cells and the resulting monolayers were used to determine the effects of Toltrazuril and Ponazuril on merozoite production as measured by CPE (plaque formation). […]
# [2] = test system: Bovine turbinate (BT) cells; format: cell-based; details: uninfected agent treated BT cells
# Method: Bovine turbinate (BT) cells were used for all in vitro studies. Cells were grown to confluency in 25 cm^2 flasks in RMPI 1640 media supplemented with 10% v/v fetal bovine serum (FBS), 100 Units penicillin (G/mL), […] and 5×10^-2 mM 2-mercpatoethanol. After cell confluence was obtained, cells were maintained in the same media with reduced FBS (2% v/v). Cell cultures were incubated at 37° C. in a humidified atmosphere containing 5% carbon dioxide and 95% air.
# The assay used to determine the effectiveness of Ponazuril was the Microtiter Monolayer Disruption Assay (MMDA). This assay was used to determine if the parasites or compound were toxic for BT cells. Flat bottomed 96-well microtiter plates were inoculated with BT cells and the resulting monolayers were used to determine the effects of Toltrazuril and Ponazuril on merozoite production as measured by CPE (plaque formation). […]
# [3] = Safety and effectiveness of a single high dose; format: in vivo; details: doses as high as 100 mg/Kg body weight
# Method: For the single high dose treatment the triazineone is administered in pharmaceutically effective amounts that are greater than 10 mg/Kg and up to about 100 mg/Kg. It is a distinct feature of the invention the compounds of this invention can be non-toxic, thus they can be administrated at high dose levels. The advantage of the high dose administration resides in the fact repeated doses are not required.
# [4] = Cerebral spinal fluid drug levels / passage of blood-brain barrier after repeated doses of Toltrazuril in horses; format: in vivo; details: horses
# Method: This experiment was conducted in order to determine whether triazineones such as Toltrazuril can pass the blood-brain barrier. Normal horses were divided into three groups of three horses per group. Group 1 horses received Toltrazuril administered orally as a 5% suspension at a dose level of 2.5 mg/Kg. Group 2 horses received Toltrazuril administered orally as a 5% suspension at a dose level of 5.0 mg/Kg. Group 3 horses received Toltrazuril administered orally as a 5% suspension at a dose level of 7.5 mg/Kg. The dosing was repeated daily for 10 days. Blood samples were drawn at 48, 96 and 240 hours and the concentration of Toltrazuril, Toltrazuril sulfoxide and Ponazuril in the serum was measured. Ten days after the start of the treatment (Day 10), a sample of cerebral spinal fluid was removed from each horse and the concentrations of Toltrazuril, Toltrazuril Sulfoxide and Ponazuril were again measured in these samples. The concentrations of Toltrazuril, Toltrazuril Sulfoxide and Ponazuril in the serum and cerebral spinal fluid are reported in TABLES 5a and 5b.
# [5] = Pharmacokinetics of a single oral dose of Toltrazuril in horses (blood levels); format: in vivo; details: horses receiving single oral 10 mg/kg Toltrazuril
# Method: A pharmacokinetic study was conducted in horses comparing blood levels of Toltrazuril, Ponazuril and Toltrazuril Sulfoxide at various times post a single dose of Toltrazuril. All horses received a single dose of 10 mg/kg, which was administered orally as a suspension. Blood samples were drawn at the time of treatment (0) and at 0.25, 0.5, 1, 2, 4, 6, 12, 24, 48 and 72 hours post treatment. […] This was an indication that Ponazuril, alone, would produce acceptable blood levels that are envisioned to pass the blood-brain barrier, a characteristic required to treat neurological diseases such as those caused by Sarcocystis neurona, Toxoplasma gondii, Neospora caninum and Neospora heugesi.
# [6] = test system: Sarcocystis falcatula; assay: Microtiter Monolayer Disruption Assay (MMDA), inhibition of BT cell destruction by S. falcatula; format: cell-based; details: 1 μg/mL, read-out: Percent Inhibition of Cell Destruction
# Method: as §1, §2, §3
# [7] = test system: EPM-Infected Horses; assay: Response of EPM-infected horses to treatment (clinical score); format: in vivo
# Method: The compound was formulated into a paste using Ponazuril as a 15% active ingredient (a.i.) as described in EXAMPLE 1. It was administered to horses already diagnosed with EPM once a day for 28 days at a dose rate between 2.5 mg/Kg and 10 mg/Kg.
# Naturally occurring clinical cases of EPM were well characterized by signalment and laboratory diagnosis. The diagnosis used for incorporation of EPM-positive horses into this trial was as follows: Confirmed asymmetrical neurological deficit as determined by a standardized neurological examination, to include radiography, indicative of EPM; Positive Western Blot for Sarcocystis neurona IgG; Red Blood Cell count below 500 cells/mL; CSF indices--Total Protein <90, IgG index >0.3. AQ quotient <2.2.
# Additional requirements were that the horses were not suffering from diseases other than EPM. Therefore, they had to meet the following criteria: Negative CSF (<1:4) for EHV-1; Normal serum values for Vitamin E (.2.0 μg/mL); Lack of seizure disorders; Lack of behavior disorders.
# Diagnosed horses were randomly assigned to groups. Group 1 horses received the paste formulation daily at a dose rate of 5mg/Kg whereas Group 2 horses received the paste formulation daily at a dose rate of 10 mg/Kg. The treatment dose was based on body weight. The horses were evaluated for a period of 90 days (approximately 60 days after discontinuation of treatment) in order to determine that treatment was indeed effective. The response to treatment was scored using the following system: 1) 0=complete success-clinically normal with a negative CSF; 2) 1=Deficit just detected at a normal gait; 3) 2=Deficit easily detected and exaggerated by backing, turning, swaying, jaw loin pressure and neck extension; 4) 3=Deficit very prominent on walking, Facial turning, loin pressure or neck extension; 5) 4=Stumbling, tripping and falling down spontaneously; 6) 5=Recumbent, unable to rise. An improvement of one (1) unit in the score was considered a significant improvement.
# [8] = test system: Sarcocystis neurona; assay: Microtiter Monolayer Disruption Assay (MMDA), inhibition of BT cell destruction by S. neurona; format: cell-based; details: 10 μg/mL, read-out: Percent Inhibition of Cell Destruction
# Method: as §1, §2, §3
# [9] = test system: Toxoplasma gondii; assay: Microtiter Monolayer Disruption Assay (MMDA), inhibition of BT cell destruction by T. gondii; format: cell-based; details: 1.0 μg/mL, read-out: Percent Inhibition of Cell Destruction
# Method: as §1, §2, §3
# [10] = after treatment with Toltrazuril
smiles,measurement,setting,value
Cc1cc(-n2c(=O)[nH]c(=O)n(C)c2=O)ccc1Oc1ccc(S(=O)(=O)C(F)(F)F)cc1 [Ponazuril],inhibition at 1 µg/mL,[1],100%
same,Toxicity to BT cells,[2],not toxic to the BT cells
same,Safety and effectiveness,[3],both safe and effective
same,Crossing of the blood-brain barrier,[4]; after oral Toltrazuril daily for 10 days,effectively cross the blood-brain barrier
same,Concentration in cerebral spinal fluid relative to that of Toltrazuril,[4]; [10],essentially equivalent to the concentration of Toltrazuril itself
same,Crossing of the blood-brain barrier compared with Toltrazuril,[4]; [10],crosses this barrier more effectively than does Toltrazuril
same,Levels in serum / bloodstream (in words),[5],relatively high levels
same,inhibition at 1 µg/mL,[6],100%
same,Horses demonstrating acceptable improvement,"[7]; 5 mg/Kg dose, eight of nine horses",88.9%
same,TOTAL clinical score,"[7]; 5 mg/Kg group, Day 0 (baseline)",17
same,TOTAL clinical score,"[7]; 5 mg/Kg group, Day 28",13
same,TOTAL clinical score,"[7]; 5 mg/Kg group, Day 90",6
same,Horses showing significant improvement in clinical score,"[7]; 10 mg/Kg group, 28 days, by day 90 post start of treatment",100%
same,TOTAL clinical score,"[7]; 10 mg/Kg group, Day 0 (baseline)",19
same,TOTAL clinical score,"[7]; 10 mg/Kg group, Day 28",15
same,TOTAL clinical score,"[7]; 10 mg/Kg group, Day 90",4
same,"Improvement in total scores, Group 1 (5 mg/Kg) versus Group 2 (10 mg/Kg)","[7]; EPM horses, 5 vs 10 mg/Kg",approximately equivalent
same,Effectiveness for active treatment of EPM,"[7]; at either 5 mg/Kg or 10 mg/Kg, horses",effective for the active treatment of EPM in horses
same,inhibition at 10 µg/mL,[8],100%
same,inhibition at 1 µg/mL,[9],100%
